Test results published in ChEMBL document CHEMBL1147899, “Raman, FT-IR, NMR spectroscopic data and antimicrobial activity of bis[micro2-(benzimidazol-2-yl)-2-ethanethiolato-N,S,S-chloro-palladium(II)] dimer, [(micro2-CH2CH2NHNCC6H4)PdCl]2.C2H5OH complex” (2007).

What was measured:
Assay type in all cases: functional
Debaryomyces hansenii = experiment: Antifungal activity against Debaryomyces hansenii DSM 70238 at 10 ug after 72 hrs by disk diffusion method; details: DSM 70238, 72 h, read-out: IZ
Rhodotorula mucilaginosa = experiment: Antifungal activity against Rhodotorula rubra DSM 70403 at 10 ug after 72 hrs by disk diffusion method; details: DSM 70403, 72 h, read-out: IZ
Candida albicans = experiment: Antifungal activity against Candida albicans ATCC 10231 at 10 ug after 72 hrs by disk diffusion method; details: ATCC 10231, 72 h, read-out: IZ
[1] = test system: Hanseniaspora guilliermondii; experiment: Antifungal activity against Hanseniaspora guilliermondii DSM 3432 at 10 ug after 72 hrs by disk diffusion method; details: DSM 3432, 72 h, read-out: IZ
Kluyveromyces marxianus = experiment: Antifungal activity against Kluyveromyces fragilis NRRL 2415 at 10 ug after 72 hrs by disk diffusion method; details: NRRL 2415, 72 h, read-out: IZ

Work on Clc1ccccc1C(c1ccccc1)(c1ccccc1)n1ccnc1 [CLOTRIMAZOLE] yielded a zone of inhibition at 10 µg/disc (Debaryomyces hansenii) of 18 mm, a zone of inhibition at 10 µg/disc (Rhodotorula mucilaginosa) of 16 mm and a zone of inhibition at 10 µg/disc (Candida albicans) of 15 mm. The zone of inhibition at 10 µg/disc [1] was 22 mm and the zone of inhibition at 10 µg/disc (Kluyveromyces marxianus) was 18 mm.
